According to PubChem BioAssay (NCI):
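Cultured in 96-well plates, cells were exposed to test compound for 48 hours across five concentrations. TGI: total growth inhibition.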

Tests used:
Assay in all cases: NCI tumour cell line growth inhibition, 48 h
COLO 205 colon = tested on: COLO 205 colon
HCT-116 colon = tested on: HCT-116 colon
HOP-92 NSCLC = tested on: HOP-92 NSCLC
HS 578T breast = tested on: HS 578T breast
K-562 leukemia = tested on: K-562 leukemia
LOX IMVI melanoma = tested on: LOX IMVI melanoma
M14 melanoma = tested on: M14 melanoma
MDA-MB-231 breast = tested on: MDA-MB-231 breast
MDA-N = tested on: MDA-N
NCI-H522 lung = tested on: NCI-H522 lung
NCI/ADR-RES ovarian = tested on: NCI/ADR-RES ovarian
OVCAR-3 ovarian = tested on: OVCAR-3 ovarian
OVCAR-8 ovarian = tested on: OVCAR-8 ovarian
PC-3 prostate = tested on: PC-3 prostate
RPMI-8226 leukemia = tested on: RPMI-8226 leukemia
SK-OV-3 ovarian = tested on: SK-OV-3 ovarian
SR leukemia = tested on: SR leukemia
U251 CNS = tested on: U251 CNS
UACC-62 melanoma = tested on: UACC-62 melanoma
UO-31 renal = tested on: UO-31 renal

Measured: TGI

NC(CCOCCP(=O)(O)O)C(=O)O (stereo not given)
> 100 µM: all assays above
